The numbers were not newly measured in patent US8889663B2, “Formulation for oral transmucosal administration of lipid-lowering drugs” (priority 2008, dated 2014), which cites them from elsewhere.

For series [1] the following is noted: in vivo.
For series [2] the following is noted: oral, 20 mg or 40 mg dose.

For the molecule `CC(C)c1c(C(=O)Nc2ccccc2)c(-c2ccccc2)c(-c2ccc(F)cc2)n1CC[C@@H](O)C[C@@H](O)CC(=O)O` [atorvastatin], the “volume of organ and tissue space in which the active principle is distributed” value in series [1] is listed as “exceeding 600 L”.
With `CC[C@H](C)C(=O)O[C@H]1C[C@H](O)C=C2C=C[C@H](C)[C@H](CC[C@@H](O)C[C@@H](O)CC(=O)O)[C@H]21` [provastatin], the “average known residual bioavailability” value in series [2] was “around 17 % of the administered dose”.
